Data reported in patent US20220153741A1, “HETEROCYCLIC COMPOUNDS AS INHIBITORS OF KRAS G12C” (Guangdong Newopp Biopharmaceuticals Co., Ltd., priority 2019, published 2022).

Experiments:
Format in all cases: cell-based
[1] = system: LS513 (KRAS G12D) cancer cell line; experiment: 3D proliferation assay, LS513 (CellTiter-Glo); conditions: 96-well spheroid plate, 4 days
Description: (§1) 3D proliferation assay: NCI-H358 (H358, KRAS G12C) and LS513 (KRAS G12D) cancer cell lines were obtained from ATCC (American Type Culture Collection, VA). Cells were plated in 96-well spheroid plate (CORNING INC, NY)) in RPMI-1640 with 10% FBS. Compounds (11-point dilutions) and DMSO were added to the wells and incubated with cells for 4 days at 37° C. Cell viability was then determined by CellTiter-Glo (Promega, WI). IC50 values of compounds were determined as the concentration of 50% inhibition of cell viability compared to DMSO treated cells (A: IC50<0.1 μM; B: IC50 between 0.1 μM and 1 μM; C: IC50 between 1 μM and 10 μM; D: >10 μM; ND: not determined).

[2] = system: pERK1/2 in NCI-H358 cells; experiment: Phospho-ERK (pERK) assay in NCI-H358 cells; conditions: Homo sapiens, NCI-H358, 3 h, 3 hours compound treatment, pERK1/2 antibody fluorescence
Description: Phospho-ERK (pERK) assay: NCI-H358 cells were seeded in 96-well plates (Greiner) in RPMI-1640 with 10% FBS 16 hours prior to compound treatment. Serial dilution of compounds was made and added to wells, and then incubated at 37° C. for 3 hours. After the treatment, cells were fixed with 3.7% formaldehyde (VWR) for 20 min at RT, followed by being permeabilized with ice-cold methanol at −20° C. for 20 min. The methanol was then dumped and replaced with Intercept® (PBS) Blocking Buffer (LiCOR) supplemented with 0.05% Tween-20 and incubated at RT for 1 hour with gentle rocking. The blocking buffer was then replaced with the blocking buffer containing pERK1/2 antibody (Cell Signaling) and incubated at 4° C. overnight with gentle rocking. The plate was washed 5 times with 1×PBS+0.1% Tween-20. The blocking buffer containing LiCOR IRDye 680RD secondary antibody (LiCOR,) was then added and incubated for 1 hour at RT with gentle rocking. After washing 5 times with 1×PBS+0.1% Tween-20, the plate was read using CLARIOstar plate reader (BMG LABTECH GmbH). IC50 values were determined as the concentration of 50% inhibition of the fluorescence signal compared to DMSO treated cells (A: IC50<0.1 μM; B: IC50 between 0.1 μM and 1 μM; C: IC50 between 1 μM and 10 μM; D: >10 μM; ND: not determined).

[3] = system: NCI-H358 (H358, KRAS G12C) cancer cell line; experiment: 3D proliferation assay, NCI-H358 (CellTiter-Glo); conditions: 96-well spheroid plate, 4 days
Description: as §1

Row | Structure (SMILES) | IC50 [1] [nM] | IC50 [2] [nM] | IC50 [3] [nM] | IC50 ([1]; Homo sapiens, LS-513, 96 h) [nM] | IC50 ([3]; Homo sapiens, NCI-H358, 96 h) [nM]
1 | C=CC(=O)N1CCN(c2nc(=O)n3c4nc(c(F)cc24)-c2c(F)cccc2NCCCc2ccnc(C(C)C)c2-3)[C@@H](C)C1 [Example 2, (S)-2^4-(4-acryloyl-2-methylpiperazin-1-yl)-2^6,3^6-difluoro-1^2-isopropyl-2^1,2^2-dihydro-4-aza-2(1,7)-pyrido[2,3-d]pyrimidina-1(3,4)-pyridina-3(1,2)-benzenacycloheptaphan-2^2-one] | – | – | – | > 10000 | < 100
2 | C=CC(=O)N1CCN(c2nc(=O)n3c4nc(c(F)cc24)-c2c(F)cccc2NC(=O)CCc2ccnc(C(C)C)c2-3)C[C@@H]1CC#N [Example 3, (S)-2-(1-acryloyl-4-(2^6,3^6-difluoro-1^2-isopropyl-2^2,5-dioxo-2^1,2^2-dihydro-4-aza-2(1,7)-pyrido[2,3-d]pyrimidina-1(3,4)-pyridina-3(1,2)-benzenacycloheptaphane-2^4-yl)piperazin-2-yl)acetonitrile] | – | – | – | – | 1000 to 10000
3 | C=CC(=O)N1CCN(c2nc(=O)n3c4nc(c(F)cc24)-c2c(F)cccc2NC(=O)NCCc2ccnc(C(C)C)c2-3)[C@@H](C)C1 [Example 5, (S)-2^4-(4-acryloyl-2-methylpiperazin-1-yl)-2^6,3^6-difluoro-1^2-isopropyl-2^1,2^2-dihydro-4,6-diaza-2(1,7)-pyrido[2,3-d]pyrimidina-1(3,4)-pyridina-3(1,2)-benzenacyclooctaphane-2^2,5-dione] | – | – | – | – | 100 to 1000
4 | C=C(F)C(=O)N1CCN(c2nc(=O)n3c4nc(c(F)cc24)-c2c(F)cccc2NCCCc2ccnc(C(C)C)c2-3)[C@@H](C)C1 [Example 11, (S)-2^6,3^6-difluoro-2^4-(4-(2-fluoroacryloyl)-2-methylpiperazin-1-yl)-1^2-isopropyl-2^1,2^2-dihydro-4-aza-2(1,7)-pyrido[2,3-d]pyrimidina-1(3,4)-pyridina-3(1,2)-benzenacycloheptaphan-2^2-one] | – | – | – | > 10000 | 100 to 1000
5 | C=CC(=O)N1CCN(c2nc(=O)n3c4nc(c(F)cc24)-c2c(F)cccc2N(C(C)=O)CCCc2ccnc(C(C)C)c2-3)[C@@H](C)C1 [Example 12, (S)-4-acetyl-2^4-(4-acryloyl-2-methylpiperazin-1-yl)-2^6,3^6-difluoro-1^2-isopropyl-2^1,2^2-dihydro-4-aza-2(1,7)-pyrido[2,3-d]pyrimidina-1(3,4)-pyridina-3(1,2)-benzenacycloheptaphan-2^2-one] | – | – | – | > 10000 | 100 to 1000
6 | C=CC(=O)N1CCN(c2nc(=O)n3c4nc(c(F)cc24)-c2c(F)cccc2N(C(=O)N(C)C)CCCc2ccnc(C(C)C)c2-3)[C@@H](C)C1 [Example 13, (S)-2^4-(4-acryloyl-2-methylpiperazin-1-yl)-2^6,3^6-difluoro-1^2-isopropyl-N,N-dimethyl-2^2-oxo-2^1,2^2-dihydro-4-aza-2(1,7)-pyrido[2,3-d]pyrimidina-1(3,4)-pyridina-3(1,2)-benzenacycloheptaphane-4-carboxamide] | – | – | – | – | 100 to 1000
7 | C=CC(=O)N1CCN(c2nc(=O)n3c4nc(c(F)cc24)-c2c(F)cccc2N(C(=O)c2cccnc2)CCCc2ccnc(C(C)C)c2-3)[C@@H](C)C1 [Example 14, (S)-2^4-(4-acryloyl-2-methylpiperazin-1-yl)-2^6,3^6-difluoro-1^2-isopropyl-4-nicotinoyl-2^1,2^2-dihydro-4-aza-2(1,7)-pyrido[2,3-d]pyrimidina-1(3,4)-pyridina-3(1,2)-benzenacycloheptaphan-2^2-one] | – | – | – | – | 1000 to 10000
8 | C=CC(=O)N1CCN(c2nc(=O)n3c4nc(c(F)cc24)-c2c(F)cccc2N(C)C(=O)NCCc2ccnc(C(C)C)c2-3)[C@@H](C)C1 [Example 16, (S)-2^4-(4-acryloyl-2-methylpiperazin-1-yl)-2^6,3^6-difluoro-1^2-isopropyl-4-methyl-2^1,2^2-dihydro-4,6-diaza-2(1,7)-pyrido[2,3-d]pyrimidina-1(3,4)-pyridina-3(1,2)-benzenacyclooctaphane-2^2,5-dione] | – | – | – | – | 1000 to 10000
9 | C=CC(=O)N1CCN(c2nc(=O)n3c4nc(c(F)cc24)-c2c(F)cccc2NC(=O)CCc2cccc(C(C)C)c2-3)[C@@H](C)C1 [Example 18, (S)-2^4-(4-acryloyl-2-methylpiperazin-1-yl)-2^6,3^6-difluoro-1^6-isopropyl-2^1,2^2-dihydro-4-aza-2(1,7)-pyrido[2,3-d]pyrimidina-1,3(1,2)-dibenzenacycloheptaphane-2^2,5-dione] | – | – | – | > 10000 | 100 to 1000
10 | C=CC(=O)N1CCN(c2nc(=O)n3c4nc(c(F)cc24)-c2c(F)cccc2NC(=O)CCNc2cccc(C(C)C)c2-3)[C@@H](C)C1 [Example 21, (S)-2^4-(4-acryloyl-2-methylpiperazin-1-yl)-2^6,3^6-difluoro-1^6-isopropyl-2^1,2^2-dihydro-4,8-diaza-2(1,7)-pyrido[2,3-d]pyrimidina-1,3(1,2)-dibenzenacyclooctaphane-2^2,5-dione] | – | – | – | > 10000 | < 100
11 | C=CC(=O)N1CCN(c2nc(=O)n3c4nc(c(F)cc24)-c2c(F)cccc2NC(=O)CNc2cccc(C(C)C)c2-3)[C@@H](C)C1 [Example 25, (S)-2^4-(4-acryloyl-2-methylpiperazin-1-yl)-2^6,3^6-difluoro-1^6-isopropyl-2^1,2^2-dihydro-4,7-diaza-2(1,7)-pyrido[2,3-d]pyrimidina-1,3(1,2)-dibenzenacycloheptaphane-2^2,5-dione] | – | – | – | > 10000 | < 100
12 | C=CC(=O)N1C[C@H](C)N(c2nc(=O)n3c4nc(c(F)cc24)-c2c(F)cccc2NC(=O)CNc2cccc(C(C)C)c2-3)C[C@H]1C [Example 26, 2^4-((2S,5R)-4-acryloyl-2,5-dimethylpiperazin-1-yl)-2^6,3^6-difluoro-1^6-isopropyl-2^1,2^2-dihydro-4,7-diaza-2(1,7)-pyrido[2,3-d]pyrimidina-1,3(1,2)-dibenzenacycloheptaphane-2^2,5-dione] | – | – | – | > 10000 | < 100
13 | C=CC(=O)N1CCN(c2nc(=O)n3c4nc(c(F)cc24)-c2c(F)cccc2NC(=O)CCN(C)c2cccc(C(C)C)c2-3)C(C)C1 [Example 29, (S)-2^4-(4-acryloyl-2-methylpiperazin-1-yl)-2^6,3^6-difluoro-1^6-isopropyl-8-methyl-2^1,2^2-dihydro-4,8-diaza-2(1,7)-pyrido[2,3-d]pyrimidina-1,3(1,2)-dibenzenacyclooctaphane-2^2,5-dione] | > 10000 | – | < 100 | – | –
14 | C=CC(=O)N1C[C@H](C)N(c2nc(=O)n3c4nc(c(F)cc24)-c2c(F)cccc2NC(=O)CCN(C)c2cccc(C(C)C)c2-3)C[C@H]1C [Example 30, 2^4-((2S,5R)-4-acryloyl-2,5-dimethylpiperazin-1-yl)-2^6,3^6-difluoro-1^6-isopropyl-8-methyl-2^1,2^2-dihydro-4,8-diaza-2(1,7)-pyrido[2,3-d]pyrimidina-1,3(1,2)-dibenzenacyclooctaphane-2^2,5-dione] | – | – | – | > 10000 | < 100

Further lines, results first:

Row | IC50 [1] [nM] | IC50 [2] [nM] | IC50 [3] [nM] | IC50 ([1]; Homo sapiens, LS-513, 96 h) [nM] | IC50 ([3]; Homo sapiens, NCI-H358, 96 h) [nM] | Structure (SMILES)
15 | > 10000 | < 100 | < 100 | – | – | C=CC(=O)N1CCN(c2nc(=O)n3c4nc(c(F)cc24)-c2c(F)cccc2NCCCc2ccnc(C(C)C)c2-3)[C@@H](C)C1 (single isomer, unassigned) [Example 2A]
16 | – | – | > 10000 | – | – | C=C(F)C(=O)N1C[C@H](C)N(c2nc(=O)n3c4nc(c(F)cc24)-c2c(F)cccc2NCCCc2ccnc(C(C)C)c2-3)C[C@H]1C (single isomer, unassigned) [Example 6A]
17 | – | – | 100 to 1000 | > 10000 | – | C=C(F)C(=O)N1C[C@H](C)N(c2nc(=O)n3c4nc(c(F)cc24)-c2c(F)cccc2NCCCc2ccnc(C(C)C)c2-3)C[C@H]1C (single isomer, unassigned) [Example 6B]
18 | > 10000 | – | – | – | < 100 | C=CC(=O)N1C[C@H](C)N(c2nc(=O)n3c4nc(c(F)cc24)-c2c(F)cccc2NCCCNc2cccc(C(C)C)c2-3)C[C@H]1C (single isomer, unassigned) [Example 23A]
19 | 1000 to 10000 | – | 100 to 1000 | – | – | C=CC(=O)N1C[C@H](C)N(c2nc(=O)n3c4nc(c(F)cc24)-c2c(F)cccc2NCCCNc2cccc(C(C)C)c2-3)C[C@H]1C (single isomer, unassigned) [Example 23B]
20 | – | – | – | > 10000 | < 100 | C=CC(=O)N1C[C@H](C)N(c2nc(=O)n3c4nc(c(F)cc24)-c2c(F)cccc2NC(=O)CCNc2cccc(C(C)C)c2-3)C[C@H]1C [Example 24A, 2^4-((2S,5R)-4-acryloyl-2,5-dimethylpiperazin-1-yl)-2^6,3^6-difluoro-1^6-isopropyl-2^1,2^2-dihydro-4,8-diaza-2(1,7)-pyrido[2,3-d]pyrimidina-1,3(1,2)-dibenzenacyclooctaphane-2^2,5-dione]
